In publication PMC7156458, “Synthetic biology based construction of biological activity-related library of fungal decalin-containing diterpenoid pyrones” (Nature Communications, 2020):

Molecular target: Aβ42 (Homo sapiens, UniProt P05067)
Assay: Th-T (thioflavin-T) assay of Aβ42 aggregation
Assay type: biochemical

Sequence of Aβ42 (P05067 672-713): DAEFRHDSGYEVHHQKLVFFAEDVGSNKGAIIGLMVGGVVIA

For `C=C1CCC2C(C)(CCC=C(C)C)C(O)CCC2(C)C1Cc1c(OC)oc(CO)c(C)c1=O` (stereo not drawn) [Compound 12], the “Fig. 7a Th-T reading, mean of three wells” value (shortened to “Fig. 7a Th-T reading, mean”) (column suffix _20, reading M101) was 2.081, the “Fig. 7a Th-T reading, mean” value (column suffix _20, reading M102) was 2.083 and the “Fig. 7a Th-T reading, mean” value (column suffix _20, reading M103) was 2.082. The “Fig. 7a Th-T reading, mean” value (column suffix _20, reading M104) was 2.11, the “Fig. 7a Th-T reading, mean” value (column suffix _20, reading M105) was 2.097 and the “Fig. 7a Th-T reading, mean” value (column suffix _20, reading M106) was 2.107. The “Th-T fluorescence, mean of three wells (Fig. 7a)” value (from here on “Th-T fluorescence … (Fig. 7a)”) (column suffix _50, measurement M19) was 1.719, the “Th-T fluorescence … (Fig. 7a)” value (column suffix _50, measurement M20) was 1.709 and the “Th-T fluorescence … (Fig. 7a)” value (column suffix _50, measurement M21) was 1.707. For the same molecule, the “Th-T fluorescence … (Fig. 7a)” value (column suffix _50, measurement M22) was 1.694, the “Th-T fluorescence … (Fig. 7a)” value (column suffix _50, measurement M23) was 1.672 and the “Th-T fluorescence … (Fig. 7a)” value (column suffix _50, measurement M24) was 1.656. The “Th-T fluorescence … (Fig. 7a)” value (column suffix _50, measurement M25) was 1.634, the “Th-T fluorescence … (Fig. 7a)” value (column suffix _50, measurement M26) was 1.64 and the “Th-T fluorescence … (Fig. 7a)” value (column suffix _50, measurement M27) was 1.6183. The “Th-T fluorescence … (Fig. 7a)” value (column suffix _50, measurement M28) was 1.623, the “Th-T fluorescence … (Fig. 7a)” value (column suffix _50, measurement M29) was 1.606 and the “Th-T assay signal, mean of three wells (Fig. 7a)” value (“Th-T assay signal, mean” below) (column suffix _50, reading M1) was 1.526. For the same molecule, the “Th-T assay signal, mean” value (column suffix _50, reading M2) was 1.765, the “Th-T assay signal, mean” value (column suffix _50, reading M3) was 2.409 and the “Th-T assay signal, mean” value (column suffix _50, reading M4) was 2.663. The “Th-T assay signal, mean” value (column suffix _50, reading M5) was 2.734, the “Th-T assay signal, mean” value (column suffix _50, reading M6) was 2.555 and the “Th-T assay signal, mean” value (column suffix _50, reading M7) was 2.454. For the same molecule, the “Th-T assay signal, mean” value (column suffix _50, reading M8) was 2.181, the “Th-T assay signal, mean” value (column suffix _50, reading M9) was 2.034 and the “Th-T assay signal, mean” value (column suffix _50, reading M10) was 1.99. The “Th-T assay signal, mean” value (column suffix _50, reading M11) was 1.977, the “Th-T assay signal, mean” value (column suffix _50, reading M12) was 1.8801 and the “Th-T assay signal, mean” value (column suffix _50, reading M13) was 1.841. For the same molecule, the “Th-T assay signal, mean” value (column suffix _50, reading M14) was 1.819, the “Th-T assay signal, mean” value (column suffix _50, reading M15) was 1.788 and the “Th-T assay signal, mean” value (column suffix _50, reading M16) was 1.774. The “Th-T assay signal, mean” value (column suffix _50, reading M17) was 1.76, the “Th-T assay signal, mean” value (column suffix _50, reading M18) was 1.746 and the “Fig. 7a Th-T reading, mean” value (column suffix _50, reading M85) was 1.4. For the same molecule, the “Fig. 7a Th-T reading, mean” value (column suffix _50, reading M86) was 1.399, the “Fig. 7a Th-T reading, mean” value (column suffix _50, reading M87) was 1.399 and the “Fig. 7a Th-T reading, mean” value (column suffix _50, reading M88) was 1.392. The “Fig. 7a Th-T reading, mean” value (column suffix _50, reading M89) was 1.396, the “Fig. 7a Th-T reading, mean” value (column suffix _50, reading M90) was 1.401 and the “Fig. 7a Th-T reading, mean” value (column suffix _50, reading M91) was 1.4. The “Fig. 7a Th-T reading, mean” value (column suffix _50, reading M92) was 1.405, the “Fig. 7a Th-T reading, mean” value (column suffix _50, reading M93) was 1.424 and the “Fig. 7a Th-T reading, mean” value (column suffix _50, reading M94) was 1.4149. For the same molecule, the “Fig. 7a Th-T reading, mean” value (column suffix _50, reading M95) was 1.419, the “Fig. 7a Th-T reading, mean” value (column suffix _50, reading M96) was 1.4015 and the “Fig. 7a Th-T reading, mean” value (column suffix _50, reading M97) was 1.401. For the same molecule, the “Fig. 7a Th-T reading, mean” value (column suffix _50, reading M98) was 1.397, the “Fig. 7a Th-T reading, mean” value (column suffix _50, reading M99) was 1.397 and the “Fig. 7a Th-T reading, mean” value (column suffix _50, reading M100) was 1.41. The “Fig. 7a Th-T reading, mean” value (column suffix _50, reading M101) was 1.399, the “Fig. 7a Th-T reading, mean” value (column suffix _50, reading M102) was 1.3937 and the “Fig. 7a Th-T reading, mean” value (column suffix _50, reading M103) was 1.417. For the same molecule, the “Fig. 7a Th-T reading, mean” value (column suffix _50, reading M104) was 1.419, the “Fig. 7a Th-T reading, mean” value (column suffix _50, reading M105) was 1.42 and the “Fig. 7a Th-T reading, mean” value (column suffix _50, reading M106) was 1.412. The “Th-T fluorescence, mean of three wells” value (compound at 10, reading M41 of time course) was 3.264, the “Th-T fluorescence, mean of three wells” value (compound at 10, reading M42 of time course) was 3.266 and the “Th-T fluorescence, mean of three wells” value (compound at 10, reading M43 of time course) was 3.271. For the same molecule, the “Th-T fluorescence, mean of three wells” value (compound at 10, reading M44 of time course) was 3.34, the “Th-T fluorescence, mean of three wells” value (compound at 10, reading M45 of time course) was 3.373 and the “Th-T fluorescence, mean of three wells” value (compound at 10, reading M46 of time course) was 3.378. For the same molecule, the “Th-T fluorescence, mean of three wells” value (compound at 10, reading M47 of time course) was 3.37, the “Th-T fluorescence, mean of three wells” value (compound at 10, reading M48 of time course) was 3.386 and the “Th-T fluorescence, mean of three wells” value (compound at 10, reading M49 of time course) was 3.382. For the same molecule, the “Th-T fluorescence, mean of three wells” value (compound at 10, reading M50 of time course) was 3.418, the “Th-T fluorescence, mean of three wells” value (compound at 10, reading M51 of time course) was 3.408 and the “Th-T fluorescence, mean of three wells” value (compound at 10, reading M52 of time course) was 3.423. The “Th-T fluorescence, mean of three wells” value (compound at 10, reading M53 of time course) was 3.4353, the “Th-T fluorescence, mean of three wells” value (compound at 10, reading M54 of time course) was 3.443 and the “Th-T fluorescence, mean of three wells” value (compound at 10, reading M55 of time course) was 3.439. The “Th-T fluorescence, mean of three wells” value (compound at 10, reading M56 of time course) was 3.46, the “Th-T fluorescence, mean of three wells” value (compound at 10, reading M57 of time course) was 3.454 and the “Th-T fluorescence, mean of three wells” value (compound at 10, reading M58 of time course) was 3.457. For the same molecule, the “Th-T fluorescence, mean of three wells” value (compound at 10, reading M59 of time course) was 3.451, the “Th-T fluorescence, mean of three wells” value (compound at 10, reading M60 of time course) was 3.452 and the “Th-T fluorescence, mean of three wells” value (compound at 10, reading M61 of time course) was 3.431. The “Th-T fluorescence, mean of three wells” value (compound at 10, reading M62 of time course) was 3.428, the “Th-T fluorescence, mean of three wells” value (compound at 20, reading M41 of time course) was 2.229 and the “Th-T fluorescence, mean of three wells” value (compound at 20, reading M42 of time course) was 2.216. The “Th-T fluorescence, mean of three wells” value (compound at 20, reading M43 of time course) was 2.22, the “Th-T fluorescence, mean of three wells” value (compound at 20, reading M44 of time course) was 2.199 and the “Th-T fluorescence, mean of three wells” value (compound at 20, reading M45 of time course) was 2.1759. For the same molecule, the “Th-T fluorescence, mean of three wells” value (compound at 20, reading M46 of time course) was 2.17, the “Th-T fluorescence, mean of three wells” value (compound at 20, reading M47 of time course) was 2.178 and the “Th-T fluorescence, mean of three wells” value (compound at 20, reading M48 of time course) was 2.1654. The “Th-T fluorescence, mean of three wells” value (compound at 20, reading M49 of time course) was 2.1539, the “Th-T fluorescence, mean of three wells” value (compound at 20, reading M50 of time course) was 2.1392 and the “Th-T fluorescence, mean of three wells” value (compound at 20, reading M51 of time course) was 2.1473. For the same molecule, the “Th-T fluorescence, mean of three wells” value (compound at 20, reading M52 of time course) was 2.131, the “Th-T fluorescence, mean of three wells” value (compound at 20, reading M53 of time course) was 2.116 and the “Th-T fluorescence, mean of three wells” value (compound at 20, reading M54 of time course) was 2.151. For the same molecule, the “Th-T fluorescence, mean of three wells” value (compound at 20, reading M55 of time course) was 2.154, the “Th-T fluorescence, mean of three wells” value (compound at 20, reading M56 of time course) was 2.133 and the “Th-T fluorescence, mean of three wells” value (compound at 20, reading M57 of time course) was 2.135. For the same molecule, the “Th-T fluorescence, mean of three wells” value (compound at 20, reading M58 of time course) was 2.143, the “Th-T fluorescence, mean of three wells” value (compound at 20, reading M59 of time course) was 2.117 and the “Th-T fluorescence, mean of three wells” value (compound at 20, reading M60 of time course) was 2.117. The “Th-T fluorescence, mean of three wells” value (compound at 20, reading M61 of time course) was 2.0819, the “Th-T fluorescence, mean of three wells” value (compound at 20, reading M62 of time course) was 2.098 and the “Th-T fluorescence, mean of three wells” value (compound at 50, reading M41 of time course) was 1.5174. The “Th-T fluorescence, mean of three wells” value (compound at 50, reading M42 of time course) was 1.513, the “Th-T fluorescence, mean of three wells” value (compound at 50, reading M43 of time course) was 1.502 and the “Th-T fluorescence, mean of three wells” value (compound at 50, reading M44 of time course) was 1.5. The “Th-T fluorescence, mean of three wells” value (compound at 50, reading M45 of time course) was 1.494, the “Th-T fluorescence, mean of three wells” value (compound at 50, reading M46 of time course) was 1.488 and the “Th-T fluorescence, mean of three wells” value (compound at 50, reading M47 of time course) was 1.489. For the same molecule, the “Th-T fluorescence, mean of three wells” value (compound at 50, reading M48 of time course) was 1.494, the “Th-T fluorescence, mean of three wells” value (compound at 50, reading M49 of time course) was 1.481 and the “Th-T fluorescence, mean of three wells” value (compound at 50, reading M50 of time course) was 1.475. The “Th-T fluorescence, mean of three wells” value (compound at 50, reading M51 of time course) was 1.492, the “Th-T fluorescence, mean of three wells” value (compound at 50, reading M52 of time course) was 1.492 and the “Th-T fluorescence, mean of three wells” value (compound at 50, reading M53 of time course) was 1.469.
